These results are taken from patent US10351540B2, “1,2-dithiolane and dithiol compounds useful in treating mutant EGFR-mediated diseases and conditions” (Sabila Biosciences LLC, priority 2017, dated 2019).

T2 sequence (P00533 25-1210 T790M): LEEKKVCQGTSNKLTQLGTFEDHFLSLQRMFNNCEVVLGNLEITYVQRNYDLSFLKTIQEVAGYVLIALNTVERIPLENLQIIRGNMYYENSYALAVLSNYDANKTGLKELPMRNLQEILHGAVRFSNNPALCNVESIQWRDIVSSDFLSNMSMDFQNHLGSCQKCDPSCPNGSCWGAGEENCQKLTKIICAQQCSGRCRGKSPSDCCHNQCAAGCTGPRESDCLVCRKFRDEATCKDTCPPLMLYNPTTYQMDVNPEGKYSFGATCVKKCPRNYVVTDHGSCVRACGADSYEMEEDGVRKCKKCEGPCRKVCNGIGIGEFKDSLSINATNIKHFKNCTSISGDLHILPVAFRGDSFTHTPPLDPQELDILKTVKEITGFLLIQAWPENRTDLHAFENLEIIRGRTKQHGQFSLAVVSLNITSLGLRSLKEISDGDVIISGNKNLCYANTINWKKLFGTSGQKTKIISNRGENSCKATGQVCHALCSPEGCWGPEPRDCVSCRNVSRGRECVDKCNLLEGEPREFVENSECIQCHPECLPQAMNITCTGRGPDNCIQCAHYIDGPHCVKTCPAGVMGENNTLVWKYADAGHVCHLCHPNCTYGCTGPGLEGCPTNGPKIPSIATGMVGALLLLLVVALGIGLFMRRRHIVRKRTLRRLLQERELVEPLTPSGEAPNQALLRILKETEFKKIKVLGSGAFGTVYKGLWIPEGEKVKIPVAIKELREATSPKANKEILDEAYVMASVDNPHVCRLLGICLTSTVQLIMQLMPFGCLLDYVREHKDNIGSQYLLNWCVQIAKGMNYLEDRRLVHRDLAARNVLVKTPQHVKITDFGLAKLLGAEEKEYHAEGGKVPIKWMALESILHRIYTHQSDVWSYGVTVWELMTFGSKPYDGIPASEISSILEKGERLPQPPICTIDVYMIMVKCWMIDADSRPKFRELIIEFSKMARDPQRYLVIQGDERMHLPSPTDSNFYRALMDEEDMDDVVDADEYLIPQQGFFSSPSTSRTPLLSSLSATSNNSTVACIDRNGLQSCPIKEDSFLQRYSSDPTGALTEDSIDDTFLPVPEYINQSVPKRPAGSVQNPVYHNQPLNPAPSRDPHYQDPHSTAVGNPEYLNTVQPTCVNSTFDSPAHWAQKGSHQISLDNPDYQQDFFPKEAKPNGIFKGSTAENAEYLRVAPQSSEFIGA

For the first assay, the target named is T1, EGFR (L858R) (Homo sapiens, UniProt P00533, L858R).
T1 construct: made in house; host or cells: cell-free translation in rabbit reticulocyte lysate
T1 sequence (P00533 25-1210 L858R): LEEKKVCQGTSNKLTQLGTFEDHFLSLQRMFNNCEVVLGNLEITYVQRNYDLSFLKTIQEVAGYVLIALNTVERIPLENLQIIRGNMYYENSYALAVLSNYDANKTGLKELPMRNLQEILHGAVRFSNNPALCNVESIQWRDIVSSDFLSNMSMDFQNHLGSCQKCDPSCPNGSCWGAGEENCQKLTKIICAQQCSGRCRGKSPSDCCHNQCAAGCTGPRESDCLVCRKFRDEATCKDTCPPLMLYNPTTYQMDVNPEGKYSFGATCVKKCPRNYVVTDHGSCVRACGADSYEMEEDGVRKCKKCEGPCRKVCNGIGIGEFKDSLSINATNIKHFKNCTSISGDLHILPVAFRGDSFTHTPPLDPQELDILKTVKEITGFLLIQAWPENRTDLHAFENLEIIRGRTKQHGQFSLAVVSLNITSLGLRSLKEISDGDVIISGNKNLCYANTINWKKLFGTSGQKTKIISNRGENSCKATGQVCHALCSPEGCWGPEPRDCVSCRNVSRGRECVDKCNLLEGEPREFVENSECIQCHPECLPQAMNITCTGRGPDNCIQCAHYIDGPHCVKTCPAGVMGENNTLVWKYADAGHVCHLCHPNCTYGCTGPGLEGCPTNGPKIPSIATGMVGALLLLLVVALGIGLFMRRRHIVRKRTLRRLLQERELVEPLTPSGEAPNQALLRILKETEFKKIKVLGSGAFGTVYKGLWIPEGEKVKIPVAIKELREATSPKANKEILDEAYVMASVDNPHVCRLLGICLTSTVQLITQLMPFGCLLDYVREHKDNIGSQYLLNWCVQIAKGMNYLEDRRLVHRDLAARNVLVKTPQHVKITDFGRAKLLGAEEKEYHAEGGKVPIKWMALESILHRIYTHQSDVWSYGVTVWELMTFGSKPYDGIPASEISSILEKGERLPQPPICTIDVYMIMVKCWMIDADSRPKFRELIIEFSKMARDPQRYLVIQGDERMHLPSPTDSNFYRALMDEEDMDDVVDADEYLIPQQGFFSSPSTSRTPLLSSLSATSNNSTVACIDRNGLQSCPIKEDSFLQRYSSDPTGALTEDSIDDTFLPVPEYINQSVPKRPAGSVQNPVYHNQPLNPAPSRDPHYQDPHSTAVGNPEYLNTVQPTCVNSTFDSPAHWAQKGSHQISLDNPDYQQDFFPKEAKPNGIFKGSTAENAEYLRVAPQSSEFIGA
The experiment in a line: KinaseSeeker competition binding assay, rabbit reticulocyte lysate (Method A). Conditions: 7-point curve, duplicate. On the procedure: Method A: Rabbit Reticulocyte Lysate Assay Design: KinaseSeeker is a homogeneous competition binding assay where the displacement of an active site dependent probe by an inhibitor is measured by a change in luminescence signal. Luminescence readout translates into a highly sensitive and robust assay with low background and minimal interference from test compounds.
10 mM stock solutions of test compounds were serially diluted in DMSO to make assay stocks. Prior to initiating IC50 determinations, the test compounds were evaluated for false positive against split-luciferase.
Each test compound was screened in duplicate against target kinase i.e. EGFR (L858R) at 7 different concentrations. For kinase assays, Cfluc-kinase was translated along with Fos-Nfluc using a cell-free system (rabbit reticulocyte lysate) at 30° C. for 90 min. […] 80 uL of luciferin assay reagent was added to each solution and luminescence was immediately measured on a luminometer.
The % Inhibition and % Activity Remaining was calculated using the following equation: % Inhibition=[(ALUControl=ALUSample)/ALUControl]×100 % Activity Remaining=100−% Inhibition
The % Activity was plotted against compound concentration and the IC50 was determined for each compound using a 7-point curve (Jester, B. W.; et. al. J. Am. Chem. Soc. 2010, 132, 11727-11735. Jester, B. W.; et. al. J. Med. Chem. 2012, 55, 1526-1537). […]
In the case of `O=C(C[C@@H]1CCSS1)Nc1c(Nc2ccc(OCc3cccc(F)c3)c(Cl)c2)ncnc1OC[C@H](O)CO` [Example 24, N-(4-((3-chloro-4-((3-fluorobenzyl)oxy)phenyl)amino)-6-((R)-2,3-dihydroxypropoxy)pyrimidin-5-yl)-2-((R)-1,2-dithiolan-3-yl)acetamide], the IC50 is greater than 10000 nM.

`CCOc1ncnc(Nc2ccc(OCc3cccc(F)c3)c(Cl)c2)c1NC(=O)CC1CCSS1` (centres unmarked) [Example 20] came in with an IC50 of 1000 to 10000 nM.

The next assay has as its target T2, EGFR T790M (Homo sapiens, UniProt P00533, T790M).
T2 construct: made in house; host or cells: T7 phage in E. coli (BL21-derived) or HEK-293 cells
The experiment in a line: KINOMEscan competition binding kinase assay, Kd (Method B). The settings on record: Method B (Kd values).
Method: The assay is performed by combining three components: DNA-tagged kinase; immobilized ligand; and a test compound. The ability of the test compound to compete with the immobilized ligand is measured via quantitative PCR of the DNA tag.
For most assays, kinase-tagged T7 phage strains were prepared in an E. coli host derived from the BL21 strain. E. coli were grown to log-phase and infected with T7 phage and incubated with shaking at 32° C. until lysis. The lysates were centrifuged and filtered to remove cell debris. The remaining kinases were produced in HEK-293 cells and subsequently tagged with DNA for qPCR detection. Streptavidin-coated magnetic beads were treated with biotinylated small molecule ligands for 30 minutes at room temperature to generate affinity resins for kinase assays. The liganded beads were blocked with excess biotin and washed with blocking buffer (SeaBlock (Pierce), 1% BSA, 0.05% Tween 20, 1 mM DTT) to remove unbound ligand and to reduce non-specific binding. […] All reactions were performed in polystyrene 96-well plates in a final volume of 0.135 ml. […] The kinase concentration in the eluates was measured by qPCR.
The compound `COc1cc(N2CCN(C)CC2)ccc1Nc1ncc(Cl)c(Oc2cccc(NC(=O)C3CSSC3)c2)n1` [Example 36, N-(3-((5-chloro-2-((2-methoxy-4-(4-methylpiperazin-1-yl)phenyl)amino)pyrimidin-4-yl)oxy)phenyl)-1,2-dithiolane-4-carboxamide] had a Kd of 1000 to 10000 nM. As for `COc1cc(N(C)CCN(C)C)c(NC(=O)C2CSSC2)cc1Nc1nccc(-c2cn(C)c3ccccc23)n1` [Example 29, N-(2-((2-(dimethylamino)ethyl)(methyl)amino)-4-methoxy-5-((4-(1-methyl-1H-indol-3-yl)pyrimidin-2-yl)amino)phenyl)-1,2-dithiolane-4-carboxamide], the dissociation constant Kd lay within 100 to 999 nM. `COc1cc(N2CCN(C)CC2)ccc1Nc1ncc(Cl)c(Oc2cccc(NC(=O)C(CSC(C)=O)CSC(C)=O)c2)n1` [Example 35, S,S′-(2-((3-((5-chloro-2-((2-methoxy-4-(4-methylpiperazin-1-yl)phenyl)amino)pyrimidin-4-yl)oxy)phenyl)carbamoyl)propane-1,3-diyl)diethanethioate] gave an equilibrium dissociation constant (Kd) greater than 10000 nM.

`COc1cc(N2CCN(C)CC2)ccc1Nc1ncc(Cl)c(Nc2cccc(NC(=O)C(CSC(C)=O)CSC(C)=O)c2)n1` [Example 40, S,S′-(2-((3-((5-chloro-2-((2-methoxy-4-(4-methylpiperazin-1-yl)phenyl)amino)pyrimidin-4-yl)amino)phenyl)carbamoyl)propane-1,3-diyl)diethanethioate] returned a Kd of 100 to 999 nM. `COc1cc(N2CCN(C)CC2)ccc1Nc1ncc(Cl)c(Nc2cccc(NC(=O)C3CSSC3)c2)n1` [Example 41, N-(3-((5-chloro-2-((2-methoxy-4-(4-methylpiperazin-1-yl)phenyl)amino)pyrimidin-4-yl)amino)phenyl)-1,2-dithiolane-4-carboxamide] returned a dissociation constant (Kd) of 1 to 99 nM. Regarding `COc1cc(N(C)CCN(C)C)c(NC(=O)C(CSC(C)=O)CSC(C)=O)cc1Nc1nccc(-c2cn(C)c3ccccc23)n1` [Example 28, S,S′-(2-((2-((2-(dimethylamino)ethyl)(methyl)amino)-4-methoxy-5-((4-(1-methyl-1H-indol-3-yl)pyrimidin-2-yl)amino)phenyl)carbamoyl)propane-1,3-diyl)diethanethioate], the Kd fell in the range of 100 to 999 nM.
